What all share (format): cell-based
Assay [1] relates to COS7 cells transfected with pEGFP-Q82-19. Kind of assay: Aggregate body formation in COS7 cells expressing truncated DRPLA protein with expanded polyglutamine stretch (GFP fusion). On the procedure: (§1) The COS7 cells were transfected with plasmid thus constructed. COS7 cells were seeded in Dulbecco's modified Eagle's medium (DMEM) containing 10% fetal calf serum the day before transfection at 3×10^4 per well of an 8-well chamber slide (Nunc Inc., Naperville, Ill.). The COS7 cells were transfected with 0.5 μg of plasmid DNA using the SuperFect transfection reagent (Qiagen, Hilden, Germany) according to the manufacturer's instructions.
(§2) To investigate whether the transglutaminase reaction is involved in the formation of aggregate bodies and the induction of apoptotic cell death, the inventors cultured COS7 cells in the presence of transglutaminase inhibitors (cystamine^28, monodansyl cadaverine (MDC)^29, and putrescine^30), after transfection. For tilis purpose, truncated DRPLA proteins were expressed as fusion proteins with green fluorescence protein (GFP), which allowed the highly sensitive observation of viable cells. The inserts of pEF-BOS-FQ82-19 and pEF-BOS-FQ19-19 were transferred into pEGFP containing the coding region for GFP. The resultant plasmid DNAs (pEGFP-FQ82-19 and pEGFP-FQ19-19) were transfected into COS7 cells. The plasmid DNA was constructed as below. The segment coding for 3 histidines, the polyglutamine stretch and 19 amino acids downstream of the polyglutamine stretch of DRPLA cDNA (pDRPLAE or pDRPLAN) was amplified by PCR using a primer (5′-GGGAATTCGGATGCACCAT-[…]-3′) containing an EcoRI linker sequence and a primer (5′-[…]-3′). PCR products were digested with EcoRI and BamHI, and subcloned into the pEGFP-N1 expression vector (Clontech, Palo Alto, Calif.). The nucleotide sequences of all the constructs were confirmed using automated DNA sequencers (PE Applied Biosystems, Foster City, Calif.).
The effects of other transglutaminase inhibitor (MDC) on the aggregate formation and apoptotic cell death were also investigated. The TUNEL assay was performed using an In Situ Cell Death Detection Kit (Boehringer Mannheim, Mannheim, Germany) according to the manufacturer's instructions. FITC-conjugated dUTP was used for the terminal deoxynucleotidyl transferase reaction. An assay for nuclear fragmentation was performed by staining cells with […] Hoechst 33342. Quantitation was performed by analyzing 100 cells expressing the FLAG epitope. Statistical analyses were performed using Student's t test.

The test system is the same in assay [2]. Kind of assay: Nuclear fragmentation (apoptotic cell death), Hoechst 33342 staining. On the procedure: as §1, §2
The effects of other transglutaminase inhibitor (MDC) on the aggregate formation and apoptotic cell death were also investigated. The TUNEL assay was performed using an In Situ Cell Death Detection Kit (Boehringer Mannheim, Mannheim, Germany) according to the manufacturer's instructions. […] Quantitation was performed by analyzing 100 cells expressing the FLAG epitope. […]

The subject of assay [3] is COS7 cells transfected with pEGFP-Q19-19. Kind of assay: Expression pattern of GFP fusion protein with polyglutamine stretch of normal length. The following applies: 1 mM cystamine. The method, then:
as §1
To investigate whether the transglutaminase reaction is involved in the formation of aggregate bodies and the induction of apoptotic cell death, the inventors cultured COS7 cells in the presence of transglutaminase inhibitors (cystamine^28, monodansyl cadaverine (MDC)^29, and putrescine^30), after transfection. For tilis purpose, truncated DRPLA proteins were expressed as fusion proteins with green fluorescence protein (GFP), which allowed the highly sensitive observation of viable cells. The inserts of pEF-BOS-FQ82-19 and pEF-BOS-FQ19-19 were transferred into pEGFP containing the coding region for GFP. The resultant plasmid DNAs (pEGFP-FQ82-19 and pEGFP-FQ19-19) were transfected into COS7 cells. The plasmid DNA was constructed as below. […]

The mark [4] stands for this setting: even at 100 µM of cystamine, various concentrations.

The record followed here is patent US6355690B1, “Remedy for CAG repeat expansion diseases” (Niigata University, priority 1998, dated 2002).

Regarding `CN(C)c1cccc2c(S(=O)(=O)NCCCCCN)cccc12` [MDC, monodansyl cadaverine], the “sizes of the aggregate bodies (in words)” value in assay [1] (presence of MDC compared to absence of MDC) is “smaller”. In assay [1] (various concentrations of MDC), the “frequencies of the cells with aggregate formation (in words)” value is listed as “no significant changes”. The “suppression of nuclear fragmentation (in words)” value in assay [2] (various concentrations of MDC) was “Strong suppression”.

For the compound `NCCSSCCN` [cystamine], the “expression patterns of the fusion protein (in words)” value in assay [3] is recorded as “did not change”. Further, the “frequency of cells retaining a diffuse cytoplasmic expression pattern without aggregate formation” value in assay [1] (1 mM cystamine, 60 hours after transfection, 32% in absence of cystamine, P<0.01) was 56%. The “cells with formation of aggregate bodies” value in assay [1] (1 mM cystamine, cultured for 60 hours, 42% without cystamine, P<0.01) worked out at 33%. Also, in assay [1] (setting [4]), the “suppression of aggregate bodies (in words)” value is reported as “suppression effects appeared in a dose-dependent manner”. Further, in assay [2] (1 mM cystamine, 60 hours, 38% without cystamine, P<0.05), the nuclear fragmentation was 24%. In addition, in assay [2] (setting [4]), the “suppression of nuclear fragmentation (in words)” value was “suppression effects appeared in a dose-dependent manner”.
